This note sets out measurements from US20200172483A1, “HETEROCYCLIC SMALL MOLECULE MODULATORS OF HUMAN STING” (Curadev Pharma Limited, priority 2017, published 2020).

One assay concerns the target T1, WT/R232 STING protein (Homo sapiens, UniProt Q86WV6, H232R).
T1 construct: host or cells: HEK293T
Briefly: Luciferase reporter assay in HEK293T-hSTING-Luciferase cells (R232). It counts as cell-based. The following applies: 20 hr stimulation, EC50 range. Summed up:
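Clonal HEK293T cells stably expressing human STING R232 plus an ISRE/ISG54-driven secreted luciferase reporter, stimulated with compounds for 20 hr. Luciferase in supernatant read by luminescence; activity given as fold-induction over baseline.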
For orientation: A reporter such as luciferase makes a cellular process visible.

A further assay addresses T2, hSTING (H232) (Homo sapiens, UniProt Q86WV6).
T2 construct: host or cells: HEK293T
Kind of assay: Luciferase reporter assay in HEK293T-hSTING-Luciferase cells (H232/REF polymorph). The following applies: EC50 range. It counts as cell-based. An excerpt:
(§1) • a) Stable STING expressing cells—Stable HEK293T STING-expressing cell lines were generated using plasmids purchased from Invivogen, CA, USA, that contain STING cDNA cloned into the pUNO-1 vector under hEF1-HTLV promoter and containing the Blasticidin selection cassette. The plasmids hSTING (R232), hSTING (H232), hSTING (HAQ) were directly procured from Invivogen while hSTING (AQ) and hSTING (Q) were derived from hSTING (HAQ) and hSTING (R232) plasmids respectively by using a PCR based site directed mutagenesis method. These vectors were individually transfected into HEK293T cells using Lipofectamine (Invitrogen) and transfected cells were selected under Blasticidin selection. These transfected cells were further subjected to clonal selection using the limiting dilution method to obtain clonally pure populations of HEK cells transfected with each of the above mentioned human STING variants. Only those clones were selected in which ligand independent activation of STING was minimal. • b) Stable Luciferase reporter gene expressing cells—Stable HEK293T Luciferase reporter gene expressing cell lines were generated using pCDNA4 plasmids under an IRF-inducible promoter. This promoter is comprised of five tandem interferon-stimulated response elements (ISRE) fused to an ISG54 minimal promoter. This vector was transfected into HEK293T cells using Lipofectamine (Invitrogen) and transfected cells were selected under Zeocin selection. These transfected cells were further subjected to clonal selection using the limiting dilution method to obtain clonally pure populations of HEK cells transfected the Luciferase reporter construct. Only those clones were selected in which ligand independent induction of luciferase was minimal.
(§2) 5×10^5 clonally selected HEK293T-hSTING-Luciferase cells were seeded in 384-well plates in growth medium and stimulated with novel compounds. After 20 hr of stimulation supernatant were removed and secretary reporter gene activity were measured using the Quanti-Luc detection system (Invivogen) on a Spectramax i3X luminometer.
(§3) The 5 major polymorphisms of human STING are shown in FIG. 1, with their prevalence in human populations indicated.

Another assay addresses T3, hSTING (HAQ) (Homo sapiens, UniProt Q86WV6, G230A/H232R/R293Q/R71H).
T3 construct: host or cells: HEK293T
Briefly: Luciferase reporter assay in HEK293T-hSTING-Luciferase cells (HAQ polymorph). The following applies: EC50 range. It counts as cell-based.
Text: as §1, §2, §3

A further assay concerns IRF pathway. Briefly: Reporter gene expression assay for IRF axis in THP1-Dual cells (secreted Lucia luciferase). It counts as cell-based, human. The following applies: Homo sapiens, THP1-Dual, 20 h, 20 hr stimulation, QUANTI-Luc, EC50 range, read-out: THP-IRF activity. As to the method: (§4) THP1-Dual™ cells (Invivogen) were derived from the human THP-1 monocyte cell line by stable integration of two inducible reporter constructs. As a result, THP1-Dual™ cells allow the simultaneous study of the NF-κB pathway, by monitoring the activity of secreted SEAP, and the IRF pathway, by assessing the activity of a secreted luciferase (Lucia). […] THP1-Dual™ cells were seeded in 384-well plates in growth medium and stimulated with novel compounds. After 20 hr of stimulation supernatant were removed and reporter proteins were readily measured in the cell culture supernatant using QUANTI-Blue™ (Invivogen), a SEAP detection reagent, and QUANTI-Luc™ (Invivogen), a luciferase detection reagent on a Spectramax i3X luminometer. EC50 value ranges for exemplary compounds tested in the above assay are given.

In another assay the test system is NF-κB pathway. Kind of assay: Reporter gene expression assay for NFκB axis in THP1-Dual cells (secreted SEAP). It counts as cell-based, human. The following applies: Homo sapiens, THP1-Dual, 20 h, 20 hr stimulation, QUANTI-Blue SEAP, EC50 range, read-out: THP-NFKB activity. Here is the method: as §4

T1 sequence (Q86WV6 whole entry H232R): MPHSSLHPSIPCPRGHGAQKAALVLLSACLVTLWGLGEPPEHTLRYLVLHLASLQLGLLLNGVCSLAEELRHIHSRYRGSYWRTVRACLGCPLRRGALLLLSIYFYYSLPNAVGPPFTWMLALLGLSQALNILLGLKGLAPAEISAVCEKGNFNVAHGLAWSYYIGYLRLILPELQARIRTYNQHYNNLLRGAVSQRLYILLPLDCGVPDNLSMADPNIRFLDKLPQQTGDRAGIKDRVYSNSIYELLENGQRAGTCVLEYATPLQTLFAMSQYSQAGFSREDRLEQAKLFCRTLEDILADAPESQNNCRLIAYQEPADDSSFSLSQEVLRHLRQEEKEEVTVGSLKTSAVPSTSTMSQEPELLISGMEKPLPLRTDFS
T2 sequence (Q86WV6 whole entry): as the sequence (Q86WV6 whole entry H232R) above, with R232H counted along it
T3 sequence (Q86WV6 whole entry R71H/G230A/H232R/R293Q): as the sequence (Q86WV6 whole entry H232R) above, with R71H, G230A, R293Q counted along it

On to `CC1(C)C(=O)N(Cc2c(F)cccc2Cl)c2cc(C(=O)NCc3cc4ccccc4o3)ccc21` [Example 36, N-(benzofuran-2-ylmethyl)-1-(2-chloro-6-fluorobenzyl)-3,3-dimethyl-2-oxoindoline-6-carboxamide], for which the EC50 at WT/R232 STING protein is at most 1000 nM; on hSTING (H232) it was 1000 to 10000 nM; on hSTING (HAQ), 1000 to 10000 nM; with IRF pathway, 1 to 10 µM; in the assay with NF-κB pathway, 1 to 10 µM.

In the case of `CC1(C)C(=O)N(Cc2cccc(C(N)=O)c2)c2cc(C(=O)NCc3c(F)cc(F)cc3F)ccc21` [Example 37, 1-(3-carbamoylbenzyl)-3,3-dimethyl-2-oxo-N-(2,4,6-trifluorobenzyl)indoline-6-carboxamide], the EC50 at WT/R232 STING protein was 1000 to 10000 nM; at hSTING (H232) it was 1000 to 10000 nM; on hSTING (HAQ) it was over 10000 nM; in the assay on IRF pathway, over 10 µM; in the assay on NF-κB pathway it was over 10 µM.

Regarding `CC1(C)C(=O)N(Cc2cc(F)cc(F)c2)c2cc(C(=O)NCc3ccc(N=[N+]=[N-])cc3)ccc21` [Example 48, N-(4-azidobenzyl)-1-(3,5-difluorobenzyl)-3,3-dimethyl-2-oxoindoline-6-carboxamide], the EC50 on WT/R232 STING protein was 1000 to 10000 nM; on hSTING (H232), 1000 to 10000 nM; at hSTING (HAQ), 1000 to 10000 nM; in the assay on IRF pathway it was over 10 µM; in the assay on NF-κB pathway, over 10 µM.

For `Cc1ccc(CNC(=O)c2ccc3c(c2)N(Cc2c(F)cccc2F)C(=O)C3(C)C)o1` [Example 50, 1-(2,6-difluorobenzyl)-3,3-dimethyl-N-((5-methylfuran-2-yl)methyl)-2-oxoindoline-6-carboxamide], the EC50 at WT/R232 STING protein was 1000 to 10000 nM; at hSTING (H232), 1000 to 10000 nM; on hSTING (HAQ) it was 1000 to 10000 nM; in the assay with IRF pathway it was over 10 µM; with NF-κB pathway, over 10 µM.

Regarding `Cc1cc(CN2C(=O)C(C)(C)c3ccc(C(=O)NCc4c(F)cc(F)cc4F)cc32)ccn1` [Example 54, 3,3-dimethyl-1-((2-methylpyridin-4-yl)methyl)-2-oxo-N-(2,4,6-trifluorobenzyl)indoline-6-carboxamide], the EC50 on WT/R232 STING protein was 1000 to 10000 nM; on hSTING (H232) it was 1000 to 10000 nM; at hSTING (HAQ), 1000 to 10000 nM; in the assay on IRF pathway, over 10 µM; with NF-κB pathway, over 10 µM.

For the compound `CC1(C)C(=O)N(Cc2ccc(N=[N+]=[N-])cc2)c2cc(C(=O)NCc3c(F)cc(F)cc3F)ccc21` [Example 56, 1-(4-azidobenzyl)-3,3-dimethyl-2-oxo-N-(2,4,6-trifluorobenzyl)indoline-6-carboxamide], the EC50 is at most 1000 nM on WT/R232 STING protein; 1000 to 10000 nM at hSTING (H232); 1000 to 10000 nM on hSTING (HAQ); over 10 µM with IRF pathway; over 10 µM in the assay with NF-κB pathway.

Take `CC1(C)C(=O)N(Cc2cccc(N=[N+]=[N-])c2)c2cc(C(=O)NCc3c(F)cc(F)cc3F)ccc21` [Example 57, 1-(3-azidobenzyl)-3,3-dimethyl-2-oxo-N-(2,4,6-triflurobenzyl)indoline-6-carboxamide]: the EC50 at WT/R232 STING protein is 1000 to 10000 nM; on hSTING (H232), 1000 to 10000 nM; on hSTING (HAQ), 1000 to 10000 nM; with IRF pathway, over 10 µM; in the assay on NF-κB pathway, over 10 µM.

As to `Cc1ccc(CNC(=O)c2ccc3c(c2)N(Cc2ccc(F)cc2)C(=O)C3(C)C)o1` [Example 60, 1-(4-fluorobenzyl)-3,3-dimethyl-N-((5-methylfuran-2-yl)methyl)-2-oxoindoline-6-carboxamide], the EC50 on WT/R232 STING protein was 1000 to 10000 nM; on hSTING (H232), over 10000 nM; on hSTING (HAQ), 1000 to 10000 nM; with IRF pathway it was over 10 µM; in the assay on NF-κB pathway, over 10 µM.

Take `Cc1ccc(CNC(=O)c2ccc3c(c2)N(Cc2cccc(F)c2F)C(=O)C3(C)C)o1` [Example 61, 1-(2,3-difluorobenzyl)-3,3-dimethyl-N-((5-methylfuran-2-yl)methyl)-2-oxoindoline-6-carboxamide]: the EC50 at WT/R232 STING protein was 1000 to 10000 nM; on hSTING (H232) it was 1000 to 10000 nM; at hSTING (HAQ) it was 1000 to 10000 nM; with IRF pathway, over 10 µM; in the assay with NF-κB pathway, over 10 µM.

On to `Cc1ccc(CNC(=O)c2ccc3c(c2)N(Cc2c(C)cccc2F)C(=O)C3(C)C)o1` [Example 63, 1-(2-fluoro-6-methylbenzyl)-3,3-dimethyl-N-((5-methylfuran-2-yl)methyl)-2-oxoindoline-6-carboxamide], for which the EC50 at WT/R232 STING protein was at most 1000 nM; at hSTING (H232), 1000 to 10000 nM; on hSTING (HAQ) it was 1000 to 10000 nM; in the assay on IRF pathway, over 10 µM; in the assay on NF-κB pathway, over 10 µM.

On to `Cc1cc(CN2C(=O)C(C)(C)c3ccc(C(=O)NCc4c(F)cc(F)cc4F)cc32)no1` [Example 70, 3,3-dimethyl-1-((5-methylisoxazol-3-yl)methyl)-2-oxo-N-(2,4,6-trifluorobenzyl)indoline-6-carboxamide], for which the EC50 on WT/R232 STING protein was 1000 to 10000 nM; on hSTING (H232), 1000 to 10000 nM; at hSTING (HAQ), 1000 to 10000 nM; in the assay with IRF pathway, over 10 µM; with NF-κB pathway it was over 10 µM.

In the case of `CC1(C)C(=O)N(Cc2c(F)cccc2Cl)c2cc(C(=O)NCc3ccc4occc4c3)ccc21` [Example 71, N-(benzofuran-5-ylmethyl)-1-(2-chloro-6-fluorobenzyl)-3,3-dimethyl-2-oxoindoline-6-carboxamide], the EC50 is 1000 to 10000 nM at WT/R232 STING protein; 1000 to 10000 nM on hSTING (H232); 1000 to 10000 nM on hSTING (HAQ); over 10 µM in the assay on IRF pathway; 1 to 10 µM in the assay on NF-κB pathway.

In the case of `CC1(C)C(=O)N(Cc2c(F)cccc2Cl)c2cc(C(=O)NCc3ccccc3F)ccc21` [Example 72, 1-(2-chloro-6-fluorobenzyl)-N-(2-fluorobenzyl)-3,3-dimethyl-2-oxoindoline-6-carboxamide], the EC50 at WT/R232 STING protein was at most 1000 nM; at hSTING (H232) it was 1000 to 10000 nM; at hSTING (HAQ), 1000 to 10000 nM; in the assay on IRF pathway, over 10 µM; with NF-κB pathway, 1 to 10 µM.

Regarding `Cc1cccc(CN2C(=O)C(C)(C)c3ccc(C(=O)NCc4c(F)cc(F)cc4F)cc32)c1F` [Example 73, 1-(2-fluoro-3-methylbenzyl)-3,3-dimethyl-2-oxo-N-(2,4,6-trifluorobenzyl)indoline-6-carboxamide], the EC50 is at most 1000 nM on WT/R232 STING protein; at most 1000 nM on hSTING (H232); at most 1000 nM on hSTING (HAQ); 1 to 10 µM with IRF pathway; 1 to 10 µM in the assay with NF-κB pathway.

On to `CC1(C)C(=O)N(Cc2c(F)cccc2Cl)c2cc(C(=O)NCc3cc4ccc(F)cc4o3)ccc21` [Example 74, 1-(2-chloro-6-fluorobenzyl)-N-((6-fluorobenzofuran-2-yl)methyl)-3,3-dimethyl-2-oxoindoline-6-carboxamide], for which the EC50 on WT/R232 STING protein was at most 1000 nM; on hSTING (H232), at most 1000 nM; at hSTING (HAQ), at most 1000 nM; in the assay on IRF pathway it was 1 to 10 µM; in the assay on NF-κB pathway, 1 to 10 µM.

For the compound `CC1(C)C(=O)N(Cc2c(F)cccc2Cl)c2cc(C(=O)NCc3cc4cc(F)ccc4o3)ccc21` [Example 75, 1-(2-chloro-6-fluorobenzyl)-N-((5-fluorobenzofuran-2-yl)methyl)-3,3-dimethyl-2-oxoindoline-6-carboxamide], the EC50 on WT/R232 STING protein is at most 1000 nM; on hSTING (H232) it was at most 1000 nM; at hSTING (HAQ), at most 1000 nM; in the assay on IRF pathway it was 1 to 10 µM; with NF-κB pathway it was 1 to 10 µM.

In the case of `CC1(C)C(=O)N(Cc2c(F)cccc2C#N)c2cc(C(=O)NCc3c(F)cc(F)cc3F)ccc21` [Example 76, 1-(2-cyano-6-fluorobenzyl)-3,3-dimethyl-2-oxo-N-(2,4,6-trifluorobenzyl)indoline-6-carboxamide], the EC50 is 1000 to 10000 nM on WT/R232 STING protein; 1000 to 10000 nM on hSTING (H232); 1000 to 10000 nM at hSTING (HAQ); over 10 µM with IRF pathway; over 10 µM in the assay with NF-κB pathway.
